Test results published in patent publication US12421500B2, “Hepato-biliary-pancreatic tissues and methods of making same” (CHILDREN'S HOSPITAL MEDICAL CENTER, priority 2018, dated 2025).
Entries after “also recorded” stand apart in the source; their conditions may differ.

Key:
[1] = tested on: E9.0 PROX1::GFP reporter mouse embryo; test: E9.0 PROX1::GFP reporter mouse whole embryo culture with BMS493; conditions: after 2 days, vs DMSO control, FIGS. 11A and 11B
From the text: FIGS. 11A and 11B. PROX1 inhibition by BMS493 exposure with E9.0 PROX1::GFP reporter mouse embryo explant culture. […] Retinoic acid receptors antagonist BMS493 treated group was compared with control (adding DMSO) group. 11A. Bright field image and GFP fluorescent image for embryo after culture. 11B. The area of GFP expressing parts was quantified from GFP image in (a). Scale bar: 1 mm
(§1) In support, Applicant exposed the bAP organoids at D9 to various RA signaling agonists or antagonists. […] Lateral plate mesoderm population acts as an activator for RA signaling during the specification in vivo^22-24. To implicate the cellular source for RA in the model system, RA signaling related genes were assessed in the isolated epithelial and non-epithelial cell populations. […] Complementing this, exposing only the posterior gut spheroid, and not the anterior gut spheroid to BMS493 prior to fusion suppressed the protein-level induction of HHEX and PDX1 (FIG. 10). […] Taken together, HBP progenitor self-specification derived from posterior region in boundary organoid model system is regulated by RA signals, and may be supported by co-differentiating anterior non-epithelial, most likely mesenchymal, lineages.
The Rotator-type Bottle Culture System (Ikemoto Scientific Technology Co., Ltd) was used for whole embryo culture. […]

[2] = tested on: bAP organoids; test: bAP organoids exposed to RA signaling agonists or antagonists, gene expression by qPCR; type: cell-based, human; conditions: bAP organoids exposed at D9; Day 11, three days culture; FIG. 2G
Description: FIG. 2A-2I. Self-emergence of hepato-biliary-pancreatic progenitors from boundary organoid without inductive factors. 2A. Generating PROX1-tdTomato reporter line by CRISPR-Cas9 gene editing system. 2B. PROX1-tdTomato expression in established PROX1 reporter iPSCs from Day 9 to Day 11. 2C. PROX1-tdTomato positive area in each organoid. AP, AA and PP combinations were evaluated. The tdTomato expression was confirmed in the cell membrane of boundary organoids in AP combination. 2D. Hepatic invagination in mouse liver primordium explant (Prox1::GFP) and human iPSC-derived boundary organoids (PROX1::m-tdTomato). 2E. The immunostaining of PROX1 in E8.75 mice embryo and boundary organoids at Day 13. 2F. Transcriptomic characterization of boundary organoids. Anterior, boundary, and posterior domains were dissected, separated, and applied for RNA sequencing. […] Heatmap was separated into 8 detailed groups (C1-C8) by unbiased hierarchical clustering. […] 2G. Gene expression of HHEX, PDX1, SOX2, and CDX2 at Day 11 with three days culture of retinoic acid, BMS493, R-75251, or WIN18446. 2H. […]
In support, Applicant exposed the bAP organoids at D9 to various RA signaling agonists or antagonists. […] To implicate the cellular source for RA in the model system, RA signaling related genes were assessed in the isolated epithelial and non-epithelial cell populations. […]

[3] = tested on: posterior gut spheroid; test: BMS493 pretreatment of anterior or posterior gut spheroids before fusion, HHEX and PDX1 immunostaining; type: cell-based, human; conditions: only posterior gut spheroid exposed prior to fusion; vs untreated control; FIG. 10
From the text: FIG. 10. Abolishment of HHEX and PDX1 induction in posterior gut specific BMS493. BMS493 pretreated anterior or posterior gut spheroids were fused to induce HBP anlage formation. […] Scale bar: 200 μm
as §1
For whole mount immunohistochemical staining, spheroid and organoid were collected from Matrigel™ and removed remaining Matrigel™ by treating with Cell recovery solution at 4° C. for 30 min. The tissues were washed by PBS and were fixed in 4% PFA at 4° C. for overnight. […]

[4] = tested on: Cholecystokinin A Receptor (CCKAR) expressing organoids; test: CCK exposure of organoids: ductal response and amylase ELISA; type: cell-based, human
From the text: FIG. 3A-3O. Modeling human hepato-biliary-pancreatic organogenesis. 3A. Illustration of dissection of PROX1 positive region from HBP organoids and image of before/after dissection. 3B. Optimization of cultured system with 1) Floating, 2) Embedded into Matrigel™, 3) Embedded into Matrigel™ and cultured with Transwell™ from D13, 4). Dissected, embedded into Matrigel™, and cultured with Transwell™ from D13. […] 3C. Morphogenesis of boundary organoids through 2 days from Day 13. 3D. Morphogenetical change of PROX1 dissected tissue from boundary organoids through 30 days of air-liquid interface cultured system. 3E. Stereomicroscopic image of Day 37 organoids. 3F. Boundary organoid has tdTomato expressing hepatobiliary tissues branched out for putative pancreatic domains, similar to cultured mouse E10.5 derived hepato-biliary-pancreas. […]
To determine whether longer-term culture can produce more mature tissue, organoids were cultured until D90. […] Furthermore, the immunofluorescent staining detected the expression of the pancreas marker PDX1 and NGN3, the liver marker PROX1, and the bile duct markers CK19 and SOX9 in the organoids (FIG. 3H). […] Given the Cholecystokinin A Receptor (CCKAR) expression in the organoids (FIG. 3N), organoids were exposed to CCK and the pancreatic secretory function was analyzed with an amylase Enzyme-linked immune sorbent assay (ELISA). […]

| Compound | PROX1 expressing cells (GFP area) [1] | gene expression of HHEX [2] | gene expression of PDX1 [2] | protein-level induction of HHEX and PDX1 at boundary [3] | amylase secretion in supernatants (ELISA) ([4]; CCK treated vs untreated controls, 3 days-CCK, FIG. 3P) | ductal structures response to CCK ([4]; on the following day, FIG. 3O) |
| --- | --- | --- | --- | --- | --- | --- |
| CC1(C)CC=C(C#Cc2ccccc2)c2cc(/C=C/c3ccc(C(=O)O)cc3)ccc21 [BMS493] | significant inhibition | strongly suppressed | strongly suppressed | suppressed; also recorded: inhibited |  |  |
| cholecystokinin [CCK] |  |  |  |  | increased | constricted |
